According to patent US7989464B2, “mGluR1 antagonists as therapeutic agents” (Schering Corporation, priority 2004, dated 2011):
Where two headings read alike, the source gives them in different places.

Target: T1, hmGluR1 receptor (Homo sapiens, UniProt Q13255)
T1 construct: expressed in transfected cells
Experiment: IC50 determination: intracellular calcium mobilization (FLIPR) upon Quisqualate stimulation in CHO cells stably expressing hmGluR1
Type: cell-based
Conditions: against Quisqualate 1 μM (EC80)
Protocol: A CHO cell line stably expressing hmGluR1 receptor was established. One day prior to assay, cells were split in growth media at concentration of 50,000 cells/well in a volume of 100 μl and seeded into black clear-bottom 96-well plates. After two to six hours, when cells were well attached to the plate, growth medium was replaced with assay medium (100 μL) consisting of DMEM high glucose, supplemented with GPT (1 U/mL) and Sodium pyruvate, 1 mM. Following overnight incubation, medium was discarded and cells were loaded for 2 h with dye from the Calcium 3 Assay Reagent Kit (Molecular Devices, # R8033), prepared according to manufacturers' instructions. […] Test compounds were added 10 minutes before Quisqualate.

[1] = FLIPR calcium mobilization, read-out: IC50 Class
[2] = class symbols, read-out: mGIuR 1 IC50
[3] = FLIPR calcium mobilization, read-out: mGluR1 IC50

T1 sequence (Q13255 19-1194): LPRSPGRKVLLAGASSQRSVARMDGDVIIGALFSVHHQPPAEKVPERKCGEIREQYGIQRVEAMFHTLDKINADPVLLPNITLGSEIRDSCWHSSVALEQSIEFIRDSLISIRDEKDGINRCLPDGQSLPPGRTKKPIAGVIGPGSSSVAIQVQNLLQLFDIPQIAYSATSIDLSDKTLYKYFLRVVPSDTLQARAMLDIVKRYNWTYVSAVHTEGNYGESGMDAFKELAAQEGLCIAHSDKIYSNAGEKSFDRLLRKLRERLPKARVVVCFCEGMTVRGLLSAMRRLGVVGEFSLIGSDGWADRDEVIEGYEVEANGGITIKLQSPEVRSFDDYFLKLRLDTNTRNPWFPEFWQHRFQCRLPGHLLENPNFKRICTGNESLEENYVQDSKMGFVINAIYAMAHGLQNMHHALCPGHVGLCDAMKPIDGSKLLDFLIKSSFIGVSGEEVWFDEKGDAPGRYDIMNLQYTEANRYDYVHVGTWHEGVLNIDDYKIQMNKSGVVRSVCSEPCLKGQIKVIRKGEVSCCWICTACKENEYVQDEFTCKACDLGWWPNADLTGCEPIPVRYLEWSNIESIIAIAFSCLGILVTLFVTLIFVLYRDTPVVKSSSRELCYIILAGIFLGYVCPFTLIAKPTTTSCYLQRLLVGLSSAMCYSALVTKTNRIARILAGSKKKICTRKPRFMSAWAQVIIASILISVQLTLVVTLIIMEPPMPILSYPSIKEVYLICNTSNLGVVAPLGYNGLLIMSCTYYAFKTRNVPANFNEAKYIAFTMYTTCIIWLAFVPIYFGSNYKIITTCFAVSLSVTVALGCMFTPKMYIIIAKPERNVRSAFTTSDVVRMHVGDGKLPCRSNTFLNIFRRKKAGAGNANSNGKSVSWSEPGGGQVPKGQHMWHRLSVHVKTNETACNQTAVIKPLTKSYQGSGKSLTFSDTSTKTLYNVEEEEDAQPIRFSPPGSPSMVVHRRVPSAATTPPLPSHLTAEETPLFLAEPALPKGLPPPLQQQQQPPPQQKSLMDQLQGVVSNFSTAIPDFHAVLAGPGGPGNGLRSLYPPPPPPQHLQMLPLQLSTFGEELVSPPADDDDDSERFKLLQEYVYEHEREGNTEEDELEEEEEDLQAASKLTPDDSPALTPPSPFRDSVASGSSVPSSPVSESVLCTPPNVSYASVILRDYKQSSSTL

Row | Compound | IC50 [1] | IC50 [2] | also measured
1 | C#CC(C)Nc1ccnc2sc3c(=O)n(-c4ccc(C)cc4)cnc3c12 (stereo not drawn) [28EZ] | 150 to 1000 nM | – | –
2 | Cc1ccc(-n2cnc3c(sc4nc(N5CCN(C)CC5)cc(N(C)C)c43)c2=O)cc1 [59A] | – | > 1000 nM | –
3 | CN(C)c1ccnc2sc3c(=O)n(N4CCCCCC4)cnc3c12 [60D] | – | < 50 nM | –
4 | CN(C)c1cncc2sc3c(=O)n(N4CCCCC4)cnc3c12 [60L] | – | 150 to 1000 nM | –
5 | CCN(C)c1ccnc2sc3c(=O)n(-c4ccc(OC)c(F)c4)cnc3c12 [28IA] | < 50 nM | – | –
6 | CN(C)c1ccnc2sc3c(=O)n(-c4ccc(O)c(F)c4)cnc3c12 [7CT] | – | < 50 nM | –
7 | CN(C)c1ccnc2sc3c(=O)n(-c4ccc5[nH]ncc5c4)cnc3c12 [7AN] | – | 150 to 1000 nM | –
8 | COc1cccc(-n2cnc3c(sc4nc(N5CCOCC5)c5c(c43)CC(C)(C)OC5)c2=O)c1 [P-4] | – | 150 to 1000 nM | –
9 | CN(C)c1ccnc2sc3c(=O)n(CC4CC4)cnc3c12 [15B] | – | 150 to 1000 nM | –
10 | CNc1ccnc2sc3c(=O)n(-c4ccc(OC)cc4)cnc3c12 [28I] | – | < 50 nM | –
11 | COc1ccc(-n2cnc3c(sc4nccc(Cl)c43)c2=O)cc1 [compound 195] | 150 to 1000 nM | – | –
12 | CN(C)c1ccnc2sc3c(=O)n(-c4ccc5nc[nH]c5c4)cnc3c12 [7AW] | – | 50 to 150 nM | –
13 | CN(C)c1c(C#N)ncc2sc3c(=O)n(-c4ccc(Cl)cc4)cnc3c12 [compound 55] | – | 50 to 150 nM | –
14 | Cc1ccc(-n2cnc3c(sc4nc(C5CC5)nc(N)c43)c2=O)cc1 [71D] | 150 to 1000 nM | – | –
15 | COc1ccc(-n2cnc3c(sc4cncc(N(C)C)c43)c2=O)cc1F [37G] | – | 150 to 1000 nM | –
16 | O=c1c2sc3ncc(Br)c(NC4CC4)c3c2ncn1-c1ccc(Cl)cc1 [28EI] | 150 to 1000 nM | – | –
17 | CN(C)c1ccnc2sc3c(=O)n(CCN4CCOCC4)cnc3c12 [15N] | – | > 1000 nM | –
18 | CC(C)c1ccc(-n2cnc3c(sc4nccc(N(C)C)c43)c2=O)cc1 [7BA] | – | 150 to 1000 nM | –
19 | COc1ccc(-n2cnc3c(sc4nccc(N(C)C)c43)c2=O)cc1F [7AP] | – | < 50 nM | –
20 | Cc1ccc(-n2cnc3c(sc4cnnc(Cl)c43)c2=O)cc1 [compound 166] | > 1000 nM | – | –
21 | O=c1c2sc3nccc(NC4CCCCC4)c3c2ncn1-c1ccccc1 [28D] | – | > 1000 nM | –
22 | CNc1c(Cl)cnc2sc3c(=O)n(-c4ccc(Cl)cc4)cnc3c12 [compound 200] | < 50 nM | – | –
23 | CN(C)c1ccc(F)c2sc3c(=O)n(C4CCCCC4)cnc3c12 [compound 104] | – | > 1000 nM | –
24 | CN(C)c1ccnc2sc3c(=O)n(C4CCCCCCC4)cnc3c12 [15Q] | – | < 50 nM | –
25 | CC(c1ccccc1)n1cnc2c(sc3nccc(N(C)C)c32)c1=O (stereo not drawn) [7AH] | – | 50 to 150 nM | –
26 | Cc1ccc(-n2cnc3c(sc4nccc(N5CC(O)C5)c43)c2=O)cc1 [28DH] | 150 to 1000 nM | – | –

Row | Compound | IC50 [1] | IC50 [2] | also measured
27 | Cc1ccc(-n2cnc3c(sc4nc(C(F)(F)F)nc(N)c43)c2=O)cc1 [71E] | > 1000 nM | – | –
28 | CN(C)c1ccnc2sc3c(=O)n(-c4ccc5ncsc5c4)cnc3c12 [7AS] | – | < 50 nM | –
29 | CNc1ccnc2sc3c(=O)n(-c4ccc5occc5c4)cnc3c12 [28BH] | < 50 nM | – | –
30 | O=c1c2sc3nc(-c4cccs4)cc(C(F)(F)F)c3c2ncn1-c1ccccc1 [P-14] | – | 150 to 1000 nM | –
31 | COc1ccnc2sc3c(=O)n(-c4ccc(Br)cc4)cnc3c12 [28FR] | < 50 nM | – | –
32 | CN(C)c1ccnc2sc3c(=O)n(Cc4cccc(Cl)c4)cnc3c12 [7R] | – | 150 to 1000 nM | –
33 | CN(C)c1cc(Cl)nc2sc3c(=O)n(C4CCCCC4)cnc3c12 [compound 83] | – | 50 to 150 nM | –
34 | C#CCN(C)c1ccnc2sc3c(=O)n(-c4ccc(OC)cc4)cnc3c12 [28DU] | < 50 nM | – | –
35 | C=CCN(C)c1ccnc2sc3c(=O)n(-c4ccc(Cl)cc4)cnc3c12 [28DZ] | < 50 nM | – | IC50 [3]: 1.08 nM
36 | Cc1ccc(-n2cnc3c(sc4nccc(N[C@@H](C)CO)c43)c2=O)cc1 [28DD] | 150 to 1000 nM | – | –
37 | COc1cc(Cl)nc2sc3c(=O)n(C4CCCCC4)cnc3c12 [compound 78] | – | > 1000 nM | –
38 | Cc1ccc(-n2cnc3c(sc4nccc(C(=O)O)c43)c2=O)cc1 [compound 77] | – | > 1000 nM | –
39 | C=CCNc1ccnc2sc3c(=O)n(-c4ccc(OC)c(F)c4)cnc3c12 [28DT] | < 50 nM | – | –
40 | CCNc1ccnc2sc3c(=O)n(-c4ccc5c(c4)CCO5)cnc3c12 [28BQ] | < 50 nM | – | IC50 [3]: 1.57 nM
41 | CC(O)c1ccnc2sc3c(=O)n(-c4ccc(Cl)cc4)cnc3c12 (stereo not drawn) [compound 185] | 50 to 150 nM | – | –
42 | Cc1ccc(-n2cnc3c(sc4nccc(NCCN(C)C)c43)c2=O)cc1 [28BA] | – | 150 to 1000 nM | –
43 | CNc1ccnc2sc3c(=O)n(-c4ccc(OC)c(F)c4)cnc3c12 [7CA] | – | < 50 nM | –
44 | COC[C@H](C)Nc1ccnc2sc3c(=O)n(-c4ccc(Br)cc4)cnc3c12 [28GZ] | > 1000 nM | – | –
45 | Cc1ccc(-n2cnc3c(sc4nc(N5CCOCC5)cc(N(C)C)c43)c2=O)cc1 [59C] | – | > 1000 nM | –
46 | CCc1ncnc2sc3c(=O)n(-c4ccc(OC)cc4)cnc3c12 [compound 201] | < 50 nM | – | –
47 | COc1ccc(-n2cnc3c(sc4nccc(N(C)CCO)c43)c2=O)cc1 [28HJ] | < 50 nM | – | –
48 | COCCn1cnc2c(sc3nccc(N(C)C)c32)c1=O [15D] | – | > 1000 nM | –
49 | CN(C)c1ccnc2sc3c(=O)n(-c4cccc(O)c4)cnc3c12 [7AV] | – | < 50 nM | –
50 | CN(C)c1ccnc2sc3c(=O)n(-c4ccc(F)cc4)cnc3c12 [7G] | – | < 50 nM | –
51 | O=c1c2sc3nccc(NC4CC4)c3c2ncn1-c1cccc(F)c1 [28CN] | < 50 nM | – | –

The next lines start with results.

Row | IC50 [1] | IC50 [2] | Compound | also measured
52 | < 50 nM | – | C#CCNc1ncnc2sc3c(=O)n(-c4ccc5occc5c4)cnc3c12 [95ES] | –
53 | > 1000 nM | – | Cc1ccc(-n2cnc3c(sc4cnnc(NCC(F)(F)F)c43)c2=O)cc1 [167G] | –
54 | < 50 nM | – | C=C(C)CNc1ncnc2sc3c(=O)n(-c4ccc5c(c4)OCCO5)cnc3c12 [95FF] | –
55 | – | < 50 nM | CN(C)c1ncnc2sc3c(=O)n(-c4ccc(OC(F)F)cc4)cnc3c12 [95Q] | –
56 | < 50 nM | – | C#CCNc1ncnc2sc3c(=O)n(-c4ccc(F)cc4)cnc3c12 [95ER] | –
57 | – | 50 to 150 nM | COc1ccc(-n2cnc3c(sc4cccc(N(C)C)c43)c2=O)cc1 [103E] | –
58 | 50 to 150 nM | – | Cc1ccc(-n2cnc3c(sc4cnnc(N(C)C)c43)c2=O)cc1 [167B] | –
59 | > 1000 nM | – | COc1ccnc2sc3c(=O)n(-c4ccncc4)cnc3c12 [161C] | –
60 | < 50 nM | – | C=C(C)CNc1ncnc2sc3c(=O)n(-c4ccc(Br)cc4)cnc3c12 [95FA] | –
61 | < 50 nM | – | C=C(C)CNc1ncnc2sc3c(=O)n(-c4ccc(F)cc4)cnc3c12 [95FI] | –
62 | < 50 nM | – | C=C(C)CNc1ncnc2sc3c(=O)n(C4CCCC4)cnc3c12 [95FL] | –
63 | – | 150 to 1000 nM | CCCc1nc2c(sc3nccc(N(C)C)c32)c(=O)n1-c1ccc(OC)cc1 [116F] | –
64 | 50 to 150 nM | – | Cc1nc(N)c2c(n1)sc1c(=O)n(-c3ccc(F)cc3)cnc12 [95EW] | –
65 | 150 to 1000 nM | – | Cc1ccc(-n2cnc3c(sc4nccc(N(C)NS(C)(=O)=O)c43)c2=O)cc1 [73J] | –
66 | 150 to 1000 nM | – | C=C(OCC)c1ccnc2sc3c(=O)n(-c4ccc(Cl)cc4)cnc3c12 [183A] | –
67 | < 50 nM | – | CCNc1ncnc2sc3c(=O)n(-c4ccc(OC)c(F)c4)cnc3c12 [95BL] | –
68 | < 50 nM | – | C=C(C)CNc1ncnc2sc3c(=O)n(-c4ccc(OC)cc4)cnc3c12 [95FT] | –
69 | 150 to 1000 nM | – | CN(C)c1cccc2sc3c(=O)n(-c4ccc(F)c(F)c4)cnc3c12 [103P] | –
70 | 150 to 1000 nM | – | C=CCNc1nncc2sc3c(=O)n(-c4ccc(C)cc4)cnc3c12 [167C] | –
71 | < 50 nM | – | C#CCNc1ncnc2sc3c(=O)n(-c4ccc(OC)cc4)cnc3c12 [95EI] | –
72 | < 50 nM | – | O=c1c2sc3ncnc(NC4CC4)c3c2ncn1-c1ccc(Br)cc1 [95AU] | IC50 [3]: 1.37 nM

Row | IC50 [1] | IC50 [2] | Compound | also measured
73 | 150 to 1000 nM | – | Cc1ccc(-n2cnc3c(sc4cnnc(NC5CC5)c43)c2=O)cc1 [167A] | –
74 | – | < 50 nM | CCN(C)c1ncnc2sc3c(=O)n(-c4ccc(OC(F)F)cc4)cnc3c12 [95T] | –
75 | – | 50 to 150 nM | CCOC(=O)c1cnc2sc3c(=O)n(-c4ccc(C)cc4)cnc3c2c1 [144A] | –
76 | 50 to 150 nM | – | C#CCNc1nc(C)nc2sc3c(=O)n(-c4ccc(OC)cc4)cnc3c12 [95FM] | –
77 | – | < 50 nM | Nc1ccnc2sc3c(=O)n(C4CCCCC4)cnc3c12 [72A] | –
78 | < 50 nM | – | CN(C)c1ncnc2sc3c(=O)n(-c4ccc(C5CC5)cc4)cnc3c12 [137D] | –
79 | – | < 50 nM | CCNc1ccnc2sc3c(=O)n(-c4ccc(C)cc4)c(C)nc3c12 [113H] | –
80 | 150 to 1000 nM | – | CNc1nncc2sc3c(=O)n(-c4ccc(C)cc4)cnc3c12 [167H] | –
81 | 50 to 150 nM | – | C#CCNc1ncnc2sc3c(=O)n(-c4ccc(OC)cc4F)cnc3c12 [95EJ] | –
82 | 50 to 150 nM | – | C#CCNc1ncnc2sc3c(=O)n(-c4ccc5c(c4)OCCO5)cnc3c12 [95EN] | –
83 | 50 to 150 nM | – | CCNc1ncnc2sc3c(=O)n(-c4ccc(OC)cc4F)cnc3c12 [95BE] | –
84 | < 50 nM | – | CCNc1ncnc2sc3c(=O)n(-c4ccc5scnc5c4)cnc3c12 [95BJ] | –
85 | 150 to 1000 nM | – | Cc1ccc(-n2cnc3c(sc4ncc(C(N)=O)cc43)c2=O)cc1 [205C] | –
86 | > 1000 nM | – | Cc1ccc(-n2cnc3c(sc4ncnc(Nc5ccccc5)c43)c2=O)cc1F [95GB] | –
87 | – | > 1000 nM | O=C(Nc1ccnc2sc3c(=O)n(C4CCCCC4)cnc3c12)c1ccc(Cl)cc1 [73G] | –
88 | 50 to 150 nM | – | O=c1c2sc3ncnc(NC4CC4)c3c2ncn1-c1ccc(Br)cc1F [95AX] | –
89 | > 1000 nM | – | Cc1ccc(-n2cnc3c(sc4ncnc(Nc5ccccc5)c43)c2=O)cc1 [95FW] | –
90 | < 50 nM | – | CSCCNc1ncnc2sc3c(=O)n(-c4ccc(C)cc4)cnc3c12 [95FR] | –
91 | 150 to 1000 nM | – | O=c1c2sc3nccc(Nc4ccccc4)c3c2ncn1-c1ccc(Cl)cc1 [190C] | –
92 | 150 to 1000 nM | – | CN(C)c1cccc2sc3c(=O)n(-c4ccc(F)cc4)cnc3c12 [103N] | –
93 | 50 to 150 nM | – | C=CCc1ccnc2sc3c(=O)n(-c4ccc(Cl)cc4)cnc3c12 [178A] | –
